The subject of assay [1] is differentiated 3T3-L1 adipocytes. The experiment in a line: Insulin-stimulated glucose uptake assay by (3H)2-deoxyglucose. Details: insulin-stimulated glucose uptake, Fig 1J replicates / Figure 5E raw value, insulin-stimulated glucose uptake (replicates): unit not given here. In kind it is cell-based, mouse. The procedure: (§1) The cell lines, which were tested for mycoplasma contamination and authenticated, were purchased from the Bioresource Collection and Research Center, Taiwan. All cells were cultured at 37 °C, 5% CO2 in a humidified incubator. HEK293T cells were maintained in DMEM (cat. no. SH30003.02, HyClone) supplemented with 10% fetal bovine serum (FBS) (cat. no. 04-001-1A, Biological Industries) and 1% antibiotic/antimycotic solution (cat. no. SV30079.01, HyClone). 3T3-L1 preadipocytes were maintained at ~70% confluence in DMEM with 10% calf serum (cat. no. 16170078, Gibco) and 1% antibiotic/antimycotic solution. For adipocyte differentiation, confluent 3T3-L1 cells (defined as day 0) were exposed to an induction medium containing 10% FBS, 1 μM dexamethasone (cat. no. D4902, Sigma-Aldrich), and 1 μg/ml insulin (Humulin R, Eli Lilly) in DMEM with or without 0.5 mM isobutyl-methylxanthine (cat. no. sc-201188A, Santa Cruz Biotechnology) as indicated. After two days, the medium was replaced with DMEM containing 10% FBS and 1 μg/ml insulin and was replenished every two days until assay.
Differentiated 3T3-L1 cells were starved with serum-free DMEM containing 0.2% BSA (cat. no. A9647, Sigma-Aldrich). Cells were rinsed twice with KRH buffer (137 mM NaCl, 4.7 mM KCl, 1.85 mM CaCl2, 1.3 mM MgSO4, 50 mM HEPES and 0.1% BSA, pH 7.4), and treated with or without […] insulin in the presence of 20 μM cytochalasin B (cat. no. 11328, Cayman Chemical), a GLUT inhibitor for measuring non-specific glucose uptake, for 30 min. Cells were then incubated with 0.5 μCi [^3H]-2-deoxy-D-Glucose (cat. no. NET328A001MC, PerkinElmer) and 0.1 μM 2-deoxy-D-Glucose (2DG) (cat. no. 14325, Cayman Chemical) for 5 min. Uptake of 2DG was terminated by rapidly removing medium and washing with ice-cold PBS three times. Cells were lysed with 0.1% SDS, and the radioactivity was measured using a liquid scintillation counter. Insulin-mediated glucose uptake was calculated by subtracting insulin-treated glucose uptake with basal glucose uptake.

For assay [2], the system named is mPPARγ-downstream genes. As to the kind of experiment: RT-qPCR of Glut4 and other mPPARγ-downstream genes in differentiated 3T3-L1 adipocytes. In kind it is cell-based, mouse. The procedure: as §1
A total of 1 × 10^5 3T3-L1 preadipocytes were seeded in 6-well plates and differentiated for six days. The 3T3-L1 adipocytes were then harvested in 1 ml of REzol C&T (cat. no. PT-KP200CT, Protech), and total RNA was extracted according to the manufacturer’s instructions with slight modifications. Briefly, 200 μl of chloroform were added to 1 ml of sample in REzol, and samples were vigorously mixed by shaking for 30 s, followed by incubation at room temperature for 5 min. Then, samples were centrifuged at 12,000 × g for 15 min at 4 °C, and 400 μl of the upper aqueous phase were transferred to a new 1.5-ml tube. An equal volume of isopropanol was added. Samples were inverted several times for mixing and then centrifuged at 12,000 × g for 10 min at 4 °C. The RNA precipitate, which formed a pellet at the bottom of the 1.5-ml tube, was washed three times with 75% ethanol and air-dried for 15 min. Pellets were dissolved in RNase-free water. The concentration of RNA was measured using Nanodrop. cDNA was synthesized using a reverse transcription kit (cat. no. K1622, Thermo Scientific) using the oligo(dT)18 primers. RT-qPCR was performed in a 10-μl reaction with 50 ng cDNA and 0.2 μM primer using SYBR green reagent (cat. no. 11203ES08, YEASEN). Mouse peptidylprolyl isomerase A (Ppia) mRNA was used as the internal control. RT-qPCR reactions were performed using ABI 7900HT FAST (Applied Biosystems) and Sequence Detection Systems (SDS v2.3, Applied Biosystems). All qPCR reactions were run in duplicates. The primers used are listed in Appendix Table S3.
In general terms: In qPCR the cycle at which signal appears reflects the starting amount.

Assay [3] has as its system PPARγ-null 3T3-L1 clones rescued with wild-type mPPARγ. As to the kind of experiment: Insulin-stimulated glucose uptake in PPARγ-null 3T3-L1 clones rescued with wild-type mPPARγ. In kind it is cell-based, mouse. The following applies: Pio 1; clone #1296 rescued with wild-type mPPARγ. The procedure: (§2) Gene editing was performed in 3T3-L1 preadipocytes using the clustered regularly interspaced short palindromic repeats (CRISPR)/Cas9 system. Two single-guide RNAs (sgRNA) (Appendix Table S5) targeting exon 6 of mouse Pparγ were designed using a web-based design tool (http://crispr.mit.edu/). These oligonucleotides were cloned into the pSurrogate reporter and pAll-Cas9.Ppuro vector obtained from Academia Sinica, Taiwan. The pSurrogate reporter contains an EGFP and an out-of-frame mCherry downstream of the sgRNA; the pAll-Cas9.Ppuro vector expresses Cas9 nuclease and sgRNA. Once a double-strand breaking at the target site in pSurrogate reporter plasmid was created by Cas9, insertions and deletions (indels) could be introduced at the cleaved site. The indels cause frameshifts and result in the expression of the mCherry gene. 3T3-L1 preadipocytes were co-transfected with pSurrogate reporter and pAll-Cas9.Ppuro vectors at 80-90% confluency using PolyJet™ transfection reagent (cat. no. SL100688, SignaGen Laboratories, USA). Two days after transfection, EGFP/mCherry double-positive cells were enriched by fluorescent-activated cell sorting. Single cells were isolated and expanded. The genomic DNA was amplified by PCR and sequenced to confirm the knockout cell lines. The primer sequences are shown in Appendix Table S5.
(§3) The mPPARγ C313A DNA sequence was amplified from pCMV6-Pparg C313A and subcloned into the pLVX-IRES-Neo vector with XhoI/NotI restriction sites. The lentiviral expression plasmids, pMD.G, and pCMVΔR8.91 (RNAi Core, Academia Sinica, Taiwan), were co-transfected into HEK293T cells. […] HSP70 was probed with an anti-HSP70 antibody (cat. no. ab45133, Abcam) as a loading control.
(§4) Differentiated 3T3-L1 cells were starved with serum-free DMEM containing 0.2% BSA (cat. no. A9647, Sigma-Aldrich). […] Uptake of 2DG was terminated by rapidly removing medium and washing with ice-cold PBS three times. Cells were lysed with 0.1% SDS, and the radioactivity was measured using a liquid scintillation counter. Insulin-mediated glucose uptake was calculated by subtracting insulin-treated glucose uptake with basal glucose uptake.

Assay [4] has as its system PPARγ-null 3T3-L1 clones rescued with mutant mPPARγ (C313A). As to the kind of experiment: Insulin-stimulated glucose uptake in PPARγ-null 3T3-L1 clones rescued with mutant mPPARγ (C313A). In kind it is cell-based, mouse. The following applies: Pio 1; clone #1296 rescued with mPPARγ C313A. The procedure: as §2, §3, §4
Assay [5] deals with PTGR2. Details: method as in Toroitich et al, 2021. The following applies: ref Toroitich et al, 2021; cited from earlier work.
In assay [6] the test system is PTGR2. More on the design: method as in Toroitich et al, 2021. The following applies: ref Toroitich et al, 2021; cited from earlier work. The source holds these as a separate data set.

Where “and” joins values, the source holds several entries; their conditions need not be identical. Equal values may be shown once.

In the case of `CCc1ccc(CCOc2ccc(CC3SC(=O)NC3=O)cc2)nc1` (stereo not shown) [Pio, pioglitazone], the “insulin-stimulated glucose uptake, Fig 1J replicates” value in assay [1] (Pio 1) is 4.303 and 3.949 and 2.761 and 3.925. In assay [2] (Pio 1μM), the “Adipoq RT-qPCR, Fig 1I replicates” value was 1.437 and 1.615 and 1.7913; the “Cepba RT-qPCR, Fig 1H replicates” value is 2.586 and 1.702 and 2.911. In addition, in assay [2] (Pio 1), the “Acs RT-qPCR, Fig 1G replicates” value was 6.866 and 5.338 and 5.547; the “Cd36 RT-qPCR, Fig 1F replicates” value is 2.685 and 1.765 and 2.147; the “Glut4 RT-qPCR, Fig 1C replicates” value is 6.074 and 7.473 and 6.277; the “Irs2 RT-qPCR, Fig 1D replicates” value was 3.5423 and 3.905 and 3.691. Besides, in assay [2] (Pio 1), the “Sorbs1 RT-qPCR, Fig 1E replicates” value was 2.4621 and 3.493 and 3.111. For the same molecule, in assay [3], the “insulin-stimulated glucose uptake, Fig 1P left panel replicates” value is 4.143 and 3.599 and 3.13 and 3.624. Moreover, in assay [4], the “insulin-stimulated glucose uptake, Fig 1P right panel replicates” value was 4.613 and 5.328 and 5.351 and 7.42.

For `CCCCCC(=O)/C=C/[C@H]1[C@H](O)CC(=O)[C@@H]1C/C=C\CCCC(=O)O` [15ketoPGE2], the “Figure 5E raw value, insulin-stimulated glucose uptake (replicates)” value in assay [1] (10 uM, DMSO control 2969.5-4461.5) was 5153.5 and 5837.5 and 5784.5 and 5754.5.

As for `O=C(c1ccc(S(=O)(=O)n2cncn2)cc1)N1CCC(c2ccccc2)CC1` [HHS-0701], the PTGR2 enzymatic activity result in assay [5] was “inhibit PTGR2 enzymatic activity”. Further, in assay [6], the “intracellular 15-keto-PGE2 concentration” value is listed as “increase intracellular 15-keto-PGE2 concentration dose-dependently”.

Source of the values: paper PMC12081876, “Identification of PTGR2 inhibitors as a new therapeutic strategy for diabetes and obesity” (EMBO Molecular Medicine, 2025).
